Assay results as given in ChEMBL document CHEMBL1152164, “The first X-ray crystal structure of the glucocorticoid receptor bound to a non-steroidal agonist” (Bioorg Med Chem Lett, 2008).

Key:
[1] = target: T1, Glucocorticoid receptor (Homo sapiens, UniProt P04150); assay: Agonist activity at glucocorticoid receptor by MMTV transactivation assay; assay type: functional
T1 sequence (P04150 whole entry): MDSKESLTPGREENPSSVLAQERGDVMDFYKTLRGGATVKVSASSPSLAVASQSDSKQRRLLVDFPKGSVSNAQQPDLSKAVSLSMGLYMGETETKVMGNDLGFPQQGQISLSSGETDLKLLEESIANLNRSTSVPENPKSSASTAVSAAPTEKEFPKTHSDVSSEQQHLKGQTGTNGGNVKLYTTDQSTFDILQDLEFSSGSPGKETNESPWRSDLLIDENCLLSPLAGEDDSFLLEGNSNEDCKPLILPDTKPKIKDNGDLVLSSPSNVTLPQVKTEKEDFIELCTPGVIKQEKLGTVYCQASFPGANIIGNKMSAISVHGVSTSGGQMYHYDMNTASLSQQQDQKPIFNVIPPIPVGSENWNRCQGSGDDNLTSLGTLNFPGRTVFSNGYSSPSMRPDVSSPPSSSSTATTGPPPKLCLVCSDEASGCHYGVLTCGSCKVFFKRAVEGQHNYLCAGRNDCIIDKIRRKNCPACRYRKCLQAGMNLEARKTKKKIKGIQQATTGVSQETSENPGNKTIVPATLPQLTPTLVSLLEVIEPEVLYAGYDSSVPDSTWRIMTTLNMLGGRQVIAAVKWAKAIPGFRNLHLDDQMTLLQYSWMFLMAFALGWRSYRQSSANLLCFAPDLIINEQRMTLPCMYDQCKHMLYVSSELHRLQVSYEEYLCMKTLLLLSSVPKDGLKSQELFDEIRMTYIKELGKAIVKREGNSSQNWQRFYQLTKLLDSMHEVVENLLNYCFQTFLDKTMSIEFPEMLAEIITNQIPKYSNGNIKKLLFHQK

[2] = target: T2, Androgen receptor (Homo sapiens, UniProt P10275); assay: Binding affinity to androgen receptor
T2 sequence (P10275 whole entry): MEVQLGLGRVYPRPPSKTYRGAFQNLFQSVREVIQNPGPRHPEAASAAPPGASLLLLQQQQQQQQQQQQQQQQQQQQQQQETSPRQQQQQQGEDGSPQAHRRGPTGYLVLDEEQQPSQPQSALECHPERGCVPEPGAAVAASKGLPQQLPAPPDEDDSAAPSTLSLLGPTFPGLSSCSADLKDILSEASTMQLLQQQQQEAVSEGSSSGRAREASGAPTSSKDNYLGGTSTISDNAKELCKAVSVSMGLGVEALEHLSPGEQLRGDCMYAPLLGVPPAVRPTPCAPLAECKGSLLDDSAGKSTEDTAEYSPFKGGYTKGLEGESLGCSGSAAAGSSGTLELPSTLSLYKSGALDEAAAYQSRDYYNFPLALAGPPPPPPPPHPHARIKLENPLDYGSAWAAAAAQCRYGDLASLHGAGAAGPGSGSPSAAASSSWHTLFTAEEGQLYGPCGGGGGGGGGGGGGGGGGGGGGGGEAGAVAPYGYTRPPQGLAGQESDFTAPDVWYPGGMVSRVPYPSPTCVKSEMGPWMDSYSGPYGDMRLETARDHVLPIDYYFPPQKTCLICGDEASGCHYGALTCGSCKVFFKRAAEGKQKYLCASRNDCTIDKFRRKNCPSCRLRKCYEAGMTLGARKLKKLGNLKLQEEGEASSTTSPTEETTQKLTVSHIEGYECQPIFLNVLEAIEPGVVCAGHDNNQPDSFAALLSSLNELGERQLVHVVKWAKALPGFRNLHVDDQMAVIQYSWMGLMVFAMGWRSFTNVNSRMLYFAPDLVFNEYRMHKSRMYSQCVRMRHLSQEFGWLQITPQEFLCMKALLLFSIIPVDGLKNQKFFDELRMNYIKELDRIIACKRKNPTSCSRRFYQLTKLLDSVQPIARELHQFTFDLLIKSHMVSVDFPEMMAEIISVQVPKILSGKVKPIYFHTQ

[3] = target: T3, Progesterone receptor (Homo sapiens, UniProt P06401); assay: Binding affinity to progesterone receptor
T3 sequence (P06401 whole entry): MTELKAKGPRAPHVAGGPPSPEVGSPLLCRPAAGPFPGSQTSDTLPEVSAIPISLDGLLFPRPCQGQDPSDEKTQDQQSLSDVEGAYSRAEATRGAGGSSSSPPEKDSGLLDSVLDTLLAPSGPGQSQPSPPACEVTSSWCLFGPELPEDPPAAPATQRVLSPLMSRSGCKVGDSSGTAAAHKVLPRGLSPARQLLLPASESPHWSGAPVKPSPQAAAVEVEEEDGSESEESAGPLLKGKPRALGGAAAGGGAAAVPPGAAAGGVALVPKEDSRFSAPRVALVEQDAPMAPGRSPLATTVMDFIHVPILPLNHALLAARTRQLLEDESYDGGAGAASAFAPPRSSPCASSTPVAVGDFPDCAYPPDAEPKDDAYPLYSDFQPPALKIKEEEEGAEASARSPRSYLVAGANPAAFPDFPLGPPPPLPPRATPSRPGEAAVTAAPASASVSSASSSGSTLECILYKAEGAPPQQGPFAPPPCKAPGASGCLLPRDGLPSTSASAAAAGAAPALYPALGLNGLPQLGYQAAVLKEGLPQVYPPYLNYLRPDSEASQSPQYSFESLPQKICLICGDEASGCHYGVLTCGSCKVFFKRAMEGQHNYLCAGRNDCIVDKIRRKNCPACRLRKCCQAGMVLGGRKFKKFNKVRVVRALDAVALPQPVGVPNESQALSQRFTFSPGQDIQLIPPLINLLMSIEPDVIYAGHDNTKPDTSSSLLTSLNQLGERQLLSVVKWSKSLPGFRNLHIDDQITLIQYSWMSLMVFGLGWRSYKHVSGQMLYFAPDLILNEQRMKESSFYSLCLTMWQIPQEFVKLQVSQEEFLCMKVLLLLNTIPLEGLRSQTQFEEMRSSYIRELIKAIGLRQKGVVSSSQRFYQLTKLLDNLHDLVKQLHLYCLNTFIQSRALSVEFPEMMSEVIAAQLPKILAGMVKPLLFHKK

[4] = target: T1, Glucocorticoid receptor; assay: Binding affinity to glucocorticoid receptor
[5] = target: T4, Mineralocorticoid receptor (Homo sapiens, UniProt P08235); assay: Binding affinity to mineralocorticoid receptor
T4 sequence (P08235 whole entry): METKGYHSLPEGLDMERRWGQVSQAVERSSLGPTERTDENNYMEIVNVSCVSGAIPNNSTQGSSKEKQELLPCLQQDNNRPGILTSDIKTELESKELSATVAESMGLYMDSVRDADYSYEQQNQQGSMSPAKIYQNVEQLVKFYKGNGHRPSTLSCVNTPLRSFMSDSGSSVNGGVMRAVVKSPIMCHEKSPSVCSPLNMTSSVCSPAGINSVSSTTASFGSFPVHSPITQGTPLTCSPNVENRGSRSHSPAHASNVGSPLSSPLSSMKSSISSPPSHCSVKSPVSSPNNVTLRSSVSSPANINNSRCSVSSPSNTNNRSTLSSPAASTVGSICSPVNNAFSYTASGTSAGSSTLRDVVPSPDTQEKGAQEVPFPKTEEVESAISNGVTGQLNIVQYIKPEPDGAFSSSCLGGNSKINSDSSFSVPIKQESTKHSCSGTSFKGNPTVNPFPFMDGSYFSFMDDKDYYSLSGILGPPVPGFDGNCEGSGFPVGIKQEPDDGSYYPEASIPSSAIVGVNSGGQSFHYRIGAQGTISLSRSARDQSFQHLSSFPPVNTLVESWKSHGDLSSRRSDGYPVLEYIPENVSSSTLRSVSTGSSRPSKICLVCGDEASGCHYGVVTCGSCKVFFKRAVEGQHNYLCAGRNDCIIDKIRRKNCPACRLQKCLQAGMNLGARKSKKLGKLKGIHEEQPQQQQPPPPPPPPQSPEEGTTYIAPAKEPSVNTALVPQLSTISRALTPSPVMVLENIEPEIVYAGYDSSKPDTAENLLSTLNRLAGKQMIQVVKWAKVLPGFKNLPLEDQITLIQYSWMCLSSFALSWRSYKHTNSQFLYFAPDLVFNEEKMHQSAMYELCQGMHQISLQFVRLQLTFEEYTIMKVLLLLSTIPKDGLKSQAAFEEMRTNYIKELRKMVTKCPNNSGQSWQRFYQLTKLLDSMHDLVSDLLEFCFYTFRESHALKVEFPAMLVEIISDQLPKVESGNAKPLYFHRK

## CCN(C[C@](O)(CNC(=O)c1cnn(-c2ccc(F)cc2)c1N)C(F)(F)F)C(=O)c1c(Cl)cccc1Cl
[1]
  EC50: 2 nM
[2]
  EC50: > 10000 nM
[3]
  EC50: > 10000 nM
[4]
  IC50: 3.16 nM
[5]
  EC50: > 10000 nM
